For assay [1], the target named is human mu-opioid receptor (hMOP) (Homo sapiens (Human), UniProt P35372). It is filed as binding.
Assay [2] has as its target human delta-opioid receptor (hDOP) (Homo sapiens (Human), UniProt P41143). Put plainly: hDOP receptor binding assay (SPA, [3H]2-D-Ala-deltorphin II). The settings on record: concentration not given; neighbouring values @1μM.
The target of assay [3] is human nociceptin/orphanin FQ peptide receptor (hNOP) (Homo sapiens (Human), UniProt P41146). It is filed as binding.

Regarding `CCN(C)C1(c2ccccc2)CCC2(CC1)CN(CC(C)(C)C(N)=O)C(=O)N2C` (stereo not drawn) [SC_5066, CIS-3-[8-(Ethyl-methyl-amino)-1-methyl-2-oxo-8-phenyl-1,3-diazaspiro[4.5]decan-3-yl]-2,2-dimethyl-propionamide], the “hMOP % @1μM (given instead of Ki)” value in assay [1] is recorded as 7% @1μM. In assay [2], the “DOP %” value is given as “(DOP 22%)”. Moreover, the “hNOP % @1μM (given instead of Ki)” value in assay [3] turned out to be 0% @1μM.

For `CCN(C)[C@]1(c2ccccc2)CC[C@]2(CC1)CN(CC(C)(C)C(N)=O)C(=O)N2` [SC_5064, CIS-3-[8-(Ethyl-methyl-amino)-2-oxo-8-phenyl-1,3-diazaspiro[4.5]decan-3-yl]-2,2-dimethyl-propionamide], the “hMOP % @1μM (given instead of Ki)” value in assay [1] was found to be 3% @1μM. For the same compound, in assay [2], the “DOP %” value is reported as “(DOP 20%)”. Moreover, the “hNOP % @1μM (given instead of Ki)” value in assay [3] stood at 3% @1μM.

These data come from US10793528B2 (priority 2016, dated 2020).
